“Also recorded” adds a separate entry of the source. Read-outs that look alike come from different tables or passages of the source. Blank lines part the entries; values can stand above or below the compound they belong to.
Tests used:
[1] = system: SH-SY5Y cells stably expressing Epac1-camps; test: FRET imaging of cAMP with Epac1-camps biosensor; type: cell-based; settings: added after forskolin 5 μM
Experimental: HEK293 cells were maintained in DMEM containing 10% (v/v) FBS, 2 mM L-glutamine and 1% penicillin/streptomycin. SH-SY5Y cells were maintained in DMEM:F12 (1:1) containing 10% (v/v) FBS, 2 mM L-glutamine and 1% penicillin/streptomycin. For FRET analysis SH-SY5Y cells stably expressing Epac1-camps under G418 selection (500 μg/ml) were seeded onto 22 mm round glass coverslips and maintained in a 6 well plate 24 h prior to use.
FRET imaging experiments were performed on SH-SY5Y-Epac1-camps stables. Cells were maintained at room temperature in DPBS (Invitrogen, UK), with added CaCl2 and MgCl2, and imaged on an inverted microscope (Olympus IX71) with a PlanApoN, 60X, NA 1.42 oil, 0.17/FN 26.5, objective (Japan). The microscope was equipped with a CCD camera (cool SNAP HQ monochrome, Photometrics), and a beam-splitter optical device (Dual-channel simultaneous-imaging system, DV^2 mag biosystem (ET-04-EM)). Imaging acquisition and analysis software used was Meta imaging series 7.1, Metafluor, and processed using ImageJ (http://rsb.info.nih.gov/ij/). FRET changes were measured as changes in the background-subtracted 480/545-nm fluorescence emission intensity on excitation at 430 nm and expressed as either R/R0, where R is the ratio at time t and R0 is the ratio at time = 0 s, or ΔR/R0, where ΔR = R − R0. Values are expressed as the mean ± SEM.

[2] = system: SH-SY5Y cells; test: Hsp20 phosphorylation assay (western blot, phospho-serine 16); type: cell-based; settings: for Hsp20 phosphorylation (serine 16): rolipram 10 μM, moexipril, 7, 8 at 50 μM, 0.5, 1, 2 h
Experimental: Compounds were diluted in media and added to cells for 0.5, 1 and 2 h prior to harvesting using 3T3 lysis buffer (1% Triton X-100, 50 mM Hepes, pH 7.2, 10 mM EDTA and 100 mM NaH2PO4) supplemented with protease inhibitor Mini-Complete (Roche) and phosphatase inhibitor PHOS-stop (Roche, UK). Hsp20 expression was analysed using standard SDS-PAGE and Western Blotting techniques using the phospho-Hsp20 antibody (ab58522 Abcam, UK) and alpha-tubulin-HRP antibody (ab40742 Abcam, UK) as the loading control. Western blotting for PDE4s was undertaken using antibodies previously described by us.

[3] = biological target: T1, PDE4B2 (Homo sapiens, UniProt Q07343); test: PDE activity two-step radioassay, PDE4B2 lysate; type: biochemical; settings: for IC50: PDE4B2 from transfected HEK293 lysate, cAMP hydrolysis, n = 3
T1 construct: expressed in transfected cells; host or cells: HEK293
Experimental: (§1) Expression plasmids encoding human PDE4 were as previously described by us [[27,28]]. The plasmids were purified from Escherichia coli using the Maxi-prep system (Qiagen, UK). For transient transfections, HEK293 cells were seeded at a 1:3 ratio into culture flasks 24 h before transfection so that cells were ~60% confluent by the time of transfection. Transfections were carried out using PolyFect® transfection reagent (Qiagen, UK) in accordance with manufacturer's instructions.
(§2) Samples were then frozen on solid CO2, thawed and then manually homogenised, followed by passage through a 26-gauge needle several times to ensure complete cell lysis. Cells were centrifuged at 13,000 rpm for 10 min to remove any unbroken cells, and the resulting supernatant was frozen in solid CO2 and stored at −80 °C until required. For experimentation, the protein concentration of whole-cell lysate from transfected and mock-transfected (vector only) cells was equalised (typically to 1 μg/μl). Protein concentration was determined through Bradford Assay using bovine serum albumin as standard.
(§3) PDE activity was determined using a two-step radioassay procedure as described previously. Activities for each PDE subtype were related to a non-drug treated sample (100% control) over an increasing dose of the indicated compounds. IC50 values were calculated using.

[4] = set-up: method as in PMID 3508548, PMID 2999531; settings: use in hypertension; cited from earlier work
[5] = biological target: T2, PDE5 (Homo sapiens, UniProt O76074); test: PDE activity two-step radioassay, PDE5 lysate; type: biochemical; settings: dose response, Fig. 3C
T2 construct: expressed in transfected cells; host or cells: HEK293
Experimental: as §2, with “Cells (~90–100% confluent) were transfected for 48 h with cDNA encoding PDE4B2, PDE4A5, PDE4D5, PDE8A and PDE5, washed with PBS and harvested by using a cell scraper in KHEM buffer (50 mM KCl, 50 mM HEPES; pH 7.2, 10 mM EGTA, 1.92 mM MgCl2, 1 mM dithiothreitol (DTT)) supplemented with protease inhibitor Mini-Complete (Roche, UK). Samples” for “Samples”
as §3, with “using. In all cases, the transfected PDE accounted for over 97% of the total PDE activity when compared with the untransfected control lysates.” for “using.”

[6] = cited from earlier work; for brain uptake: ref not given
[7] = biological target: T3, PDE4D5 (Homo sapiens, UniProt Q08499); test: PDE activity two-step radioassay, PDE4D5 lysate; type: biochemical
T3 construct: expressed in transfected cells; host or cells: HEK293
Experimental: as §1
Cells (~90–100% confluent) were transfected for 48 h with cDNA encoding PDE4B2, PDE4A5, PDE4D5, PDE8A and PDE5, washed with PBS and harvested by using a cell scraper in KHEM buffer (50 mM KCl, 50 mM HEPES; pH 7.2, 10 mM EGTA, 1.92 mM MgCl2, 1 mM dithiothreitol (DTT)) supplemented with protease inhibitor Mini-Complete (Roche, UK). Samples were then frozen on solid CO2, thawed and then manually homogenised, followed by passage through a 26-gauge needle several times to ensure complete cell lysis. Cells were centrifuged at 13,000 rpm for 10 min to remove any unbroken cells, and the resulting supernatant was frozen in solid CO2 and stored at −80 °C until required. […] Protein concentration was determined through Bradford Assay using bovine serum albumin as standard.
PDE activity was determined using a two-step radioassay procedure as described previously. […] IC50 values were calculated using. […]

[8] = biological target: beta-lactamase (Escherichia coli, UniProt P00811); test: beta-lactamase inhibition (aggregation counter-screen); type: biochemical; settings: at 10 or 100 μM
[9] = Colloidal aggregation by dynamic light scattering; type: physicochemical
[10] = biological target: T4, PDE8A (Homo sapiens, UniProt O60658); test: PDE activity two-step radioassay, PDE8A lysate; type: biochemical; settings: dose response, Fig. 3C
T4 construct: expressed in transfected cells; host or cells: HEK293
Experimental: Cells (~90–100% confluent) were transfected for 48 h with cDNA encoding PDE4B2, PDE4A5, PDE4D5, PDE8A and PDE5, washed with PBS and harvested by using a cell scraper in KHEM buffer (50 mM KCl, 50 mM HEPES; pH 7.2, 10 mM EGTA, 1.92 mM MgCl2, 1 mM dithiothreitol (DTT)) supplemented with protease inhibitor Mini-Complete (Roche, UK). Samples were then frozen on solid CO2, thawed and then manually homogenised, followed by passage through a 26-gauge needle several times to ensure complete cell lysis. Cells were centrifuged at 13,000 rpm for 10 min to remove any unbroken cells, and the resulting supernatant was frozen in solid CO2 and stored at −80 °C until required. For experimentation, the protein concentration of whole-cell lysate from transfected and mock-transfected (vector only) cells was equalised (typically to 1 μg/μl). Protein concentration was determined through Bradford Assay using bovine serum albumin as standard.
as §3, with “using. In all cases, the transfected PDE accounted for over 97% of the total PDE activity when compared with the untransfected control lysates.” for “using.”

[11] = system: porcine serum ACE; set-up: method as in PMID 3508548, PMID 2999531; settings: vs porcine serum ACE; cited from earlier work
[12] = set-up: method as in printed; settings: oral dose of 15 mg, ref not given, cited from earlier work

T1 sequence (Q07343 1-564 isoform Q07343-2): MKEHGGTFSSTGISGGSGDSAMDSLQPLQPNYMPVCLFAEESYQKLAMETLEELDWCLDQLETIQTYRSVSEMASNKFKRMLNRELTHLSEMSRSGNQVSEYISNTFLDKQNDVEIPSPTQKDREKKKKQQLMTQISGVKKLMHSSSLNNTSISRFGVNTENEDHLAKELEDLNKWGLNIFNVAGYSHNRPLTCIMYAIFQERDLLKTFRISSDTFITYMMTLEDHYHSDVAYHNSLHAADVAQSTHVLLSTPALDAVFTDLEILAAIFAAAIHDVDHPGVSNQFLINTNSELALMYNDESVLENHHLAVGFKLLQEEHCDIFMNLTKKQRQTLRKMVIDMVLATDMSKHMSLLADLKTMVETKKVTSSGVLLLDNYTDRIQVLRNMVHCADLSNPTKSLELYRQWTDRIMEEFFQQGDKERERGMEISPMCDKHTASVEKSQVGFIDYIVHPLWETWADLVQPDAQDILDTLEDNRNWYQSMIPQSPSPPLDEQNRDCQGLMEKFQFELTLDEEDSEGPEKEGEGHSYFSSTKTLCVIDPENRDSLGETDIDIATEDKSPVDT
T3 sequence (Q08499 1-745 isoform Q08499-6): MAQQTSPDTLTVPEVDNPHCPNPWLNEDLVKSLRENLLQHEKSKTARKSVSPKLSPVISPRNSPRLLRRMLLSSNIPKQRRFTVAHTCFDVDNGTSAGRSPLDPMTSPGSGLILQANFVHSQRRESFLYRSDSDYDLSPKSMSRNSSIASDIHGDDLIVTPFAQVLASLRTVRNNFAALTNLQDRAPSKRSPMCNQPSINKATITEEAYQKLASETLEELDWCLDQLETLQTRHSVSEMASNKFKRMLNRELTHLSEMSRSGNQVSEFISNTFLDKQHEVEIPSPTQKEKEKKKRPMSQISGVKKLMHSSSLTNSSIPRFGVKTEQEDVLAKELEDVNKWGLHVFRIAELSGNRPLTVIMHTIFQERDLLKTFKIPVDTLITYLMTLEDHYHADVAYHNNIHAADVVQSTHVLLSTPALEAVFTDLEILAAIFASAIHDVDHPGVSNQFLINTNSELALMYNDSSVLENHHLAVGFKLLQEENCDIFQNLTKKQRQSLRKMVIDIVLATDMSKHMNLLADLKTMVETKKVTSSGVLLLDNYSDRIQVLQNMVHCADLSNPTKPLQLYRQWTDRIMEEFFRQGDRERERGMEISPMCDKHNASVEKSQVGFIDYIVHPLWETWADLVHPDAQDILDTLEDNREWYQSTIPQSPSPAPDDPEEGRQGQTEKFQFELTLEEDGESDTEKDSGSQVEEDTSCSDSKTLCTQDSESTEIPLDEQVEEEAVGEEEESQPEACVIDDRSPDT
Chain of beta-lactamase (P00811 20-377): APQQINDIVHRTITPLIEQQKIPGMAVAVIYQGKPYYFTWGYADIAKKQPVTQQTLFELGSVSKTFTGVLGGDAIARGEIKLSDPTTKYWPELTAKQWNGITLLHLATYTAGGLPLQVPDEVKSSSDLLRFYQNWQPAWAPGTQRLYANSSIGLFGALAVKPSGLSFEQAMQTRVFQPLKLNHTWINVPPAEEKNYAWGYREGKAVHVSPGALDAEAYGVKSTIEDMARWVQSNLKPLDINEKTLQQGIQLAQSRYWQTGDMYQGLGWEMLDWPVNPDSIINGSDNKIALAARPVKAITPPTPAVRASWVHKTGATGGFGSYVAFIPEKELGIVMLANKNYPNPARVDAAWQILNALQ
T4 sequence (O60658 whole entry, species assumed): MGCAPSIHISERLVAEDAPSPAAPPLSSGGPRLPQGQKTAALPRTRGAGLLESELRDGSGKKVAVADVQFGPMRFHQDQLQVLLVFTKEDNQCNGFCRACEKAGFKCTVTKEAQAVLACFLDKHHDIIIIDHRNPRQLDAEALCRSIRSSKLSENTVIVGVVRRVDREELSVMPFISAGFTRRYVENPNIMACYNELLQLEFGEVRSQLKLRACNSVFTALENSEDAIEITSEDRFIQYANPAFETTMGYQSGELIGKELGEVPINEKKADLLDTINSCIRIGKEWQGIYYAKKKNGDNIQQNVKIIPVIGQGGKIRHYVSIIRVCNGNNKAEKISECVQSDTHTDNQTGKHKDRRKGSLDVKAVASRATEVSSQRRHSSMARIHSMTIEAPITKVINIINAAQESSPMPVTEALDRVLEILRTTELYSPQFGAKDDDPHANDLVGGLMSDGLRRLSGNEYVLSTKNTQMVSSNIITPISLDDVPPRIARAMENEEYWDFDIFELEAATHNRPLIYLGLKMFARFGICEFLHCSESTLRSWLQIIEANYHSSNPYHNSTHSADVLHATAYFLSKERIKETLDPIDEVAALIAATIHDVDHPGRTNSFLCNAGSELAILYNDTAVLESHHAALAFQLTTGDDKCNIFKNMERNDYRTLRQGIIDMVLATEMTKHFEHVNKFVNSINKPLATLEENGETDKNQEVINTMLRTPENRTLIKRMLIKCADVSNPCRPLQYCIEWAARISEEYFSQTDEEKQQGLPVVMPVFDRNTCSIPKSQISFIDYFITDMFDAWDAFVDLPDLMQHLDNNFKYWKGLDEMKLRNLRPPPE

- IC50 [3]: 89 µM
SMILES: COc1cc2c(cc1OC)CN(C(=O)Cn1cnc3ccccc3c1=O)[C@H](C(=O)O)C2 (racemic) [Compound 7]
- cellular cAMP increase (FRET ratio change) over forskolin alone [1]: significantly enhanced
- Hsp20 phosphorylation (serine 16) [2]: induced Hsp20 phosphorylation

SMILES: CCOC(=O)[C@H](CCc1ccccc1)N[C@@H](C)C(=O)N1Cc2cc(OC)c(OC)cc2C[C@H]1C(=O)O [moexipril]
- cellular cAMP increase (FRET ratio change) over forskolin alone [1]: markedly potentiated; also recorded: significantly enhance
- emetogenic activity [4]: apparently lacking emetogenic activity
- activity against PDE5 [5]: no activity
- Hsp20 phosphorylation (serine 16) [2]: significantly increased
- brain uptake [6]: poor uptake by the brain
- IC50 ([7]; PDE4D5, n = 3): 230 µM
- fold lower sensitivity to inhibition than PDE4B2 ([7]; PDE4D5 vs PDE4B2): 6 fold
- inhibition of beta-lactamase [8]: did not inhibit
- colloidal aggregation [9]: no particles were observed
- IC50 [3]: 38 µM
- activity against PDE8A [10]: no activity
- IC50 [11]: 0.04 µM
- Cmax ([12]; conversion of 25 μg/L, read-out: Cmax): ~0.05 µM
- Cmax ([12]; one PK assessment): 0.025 µg/mL

SMILES: COc1ccc([C@]2(C#N)CC[C@@H](C(=O)O)CC2)cc1OC1CCCC1 [cilomilast]
- brain penetration [6]: limited

SMILES: CCCCCCOC(=O)[C@]1(O)C[C@@H]2O[C@@]1(C)n1c3ccccc3c3c4c(c5c6ccccc6n2c5c31)C(=O)NC4 [KT5720]
- effect on Hsp20 phosphorylation induced by moexipril and forskolin ([2]; KT5720 4 μM 20 min before forskolin 10 μM with moexipril 50 μM, 5 min): attenuate

- fold better IC50 than moexipril ([3]; PDE4B2): 7 fold
- IC50 [3]: 6.9 µM
SMILES: COc1cc2c(cc1OC)CN(C(=O)CCc1c[nH]c3ccccc13)[C@H](C(=O)O)C2 (racemic) [Compound 8]
- cellular cAMP increase (FRET ratio change) over forskolin alone [1]: significantly enhanced
- Hsp20 phosphorylation (serine 16) [2]: induced Hsp20 phosphorylation

SMILES: COc1cc2c(cc1OC)CN(C(=O)[C@H](C)N[C@@H](CCc1ccccc1)C(=O)O)[C@H](C(=O)O)C2 [moexiprilat]
- brain uptake [6]: poor uptake by the brain

SMILES: COc1ccc(C2CNC(=O)C2)cc1OC1CCCC1 (stereo not shown) [rolipram]
- Hsp20 phosphorylation (serine 16) [2]: significantly increased

From publication PMC3625111 (Biochemical Pharmacology, 2013)
